Source: patent publication US4526787A, “N-heterocyclic retinoic acid analogues” (SRI International, priority 1983, dated 1985)

Legend:
[1] = tested on: Hamster Tracheal Organ Culture; assay: Tracheal organ culture assay: reversal of keratinization; format: cell-based
Protocol: (§1) The ODC assay measures a compound's ability to prevent the induction of ODC. The tracheal organ culture assay measures a compound's ability to reverse keratinization.
The tracheal organ culture assay is carried out as follows. Tracheas are taken from hamsters that are in very early stages of vitamin A deficiency and placed in organ culture. At the time of culture, the animals are still gaining weight; the tracheal epithelium is generally low columnar or cuboidal, with only occasional patches of squamous metaplasia. Each trachea is opened from the larynx to the carina along the membranous dorsal wall and cultured in a serum-free medium (CMRL-1066; with crystalline bovine insulin, 0.1 μg/ml; hydrocortisone hemisuccinate, 0.1 μg/ml; glutamine, 2 mM; penicillin, 100 units/ml; and streptomycin,100 μg/ml, added). Cultures are gassed with 50% oxygen, 45% nitrogen, and 5% CO2. The culture dishes are rocked at 35.5-36.0 degrees to allow the tracheas contact with both gas and medium. All tracheas are grown in medium containing no retinoid for the first 3 days. At the end of 3 days, some tracheas are harvested; almost of these tracheas have significant squamous metaplasia, and approximately 60% have keratinized lesions. The remaining tracheas are then divided into different groups which are treated with either: (1) retinoid dissolved in dimethylsulfoxide (final concentration of DMSO in culture medium is never greater than 0.1%) or (2) an equivalent amount of DMSO alone. Culture medium is changed three times a week, and all of the remaining tracheas are harvested at the end of 10 days in culture. Tracheas are fixed in 10% buffered formalin and embedded in paraffin. Cross sections of five micrometers are made through the mid-portion, stained with hematoxylin and eosin, and then scored with a microscope for the presence of keratin and keratohyaline granules, both of which are found in approximately 90% of control cultures that received no retinoid for the entire 10 day culture period.

Ornithine Decarboxylase = assay: ODC assay: inhibition of induction of ornithine decarboxylase by TPA in mouse skin; format: in vivo, mouse (female Charles River CD-1); settings: topical, 1 hour before TPA (17 nmol)
Protocol: as §1
The ODC assay is carried out as follows. Female Charles River CD-1 mice from Charles River Breeding Laboratories, Wilmington, Mass., are used (age 7 to 9 weeks). The dorsal hair of the mice is shaved 1 to 2 days before testing, and only mice showing no hair regrowth are used. […] The test compound, at one of three dose levels (1.7, 17 and 170 nmol), dissolved in 0.2 mL of acetone is applied 1 hour before the TPA treatment to the test groups; the control group is treated with acetone alone. The mice are killed by cervical dislocation five hours after TPA treatment. Determinations are done in triplicate.
The epidermis is obtained from the sacrificed animals. To obtain sufficient material, the dorsal skins from 2 to 3 mice in each treatment group are pooled. […]
The supernatant fraction remaining after centrifugation of the homogenate at 10,000×g for 30 seconds at 0° C. is used for the enzyme assay. Enzyme activity is determined using the microassay for ODC as described by Verma and Boutwell to measure the release of ^14 CO2 from DL-[1-^14 C]-ornithine (58 mCi/mmol) after incubation with the 10,000×g supernatant. […]

SMILES	Reversal of Keratinization in Hamster Tracheal Organ Culture, Active/Total Cultures ([1]; Conc 10^-8 M)	Reversal of Keratinization in Hamster Tracheal Organ Culture, Active/Total Cultures (%) ([1]; Conc 10^-8 M)	Reversal of Keratinization in Hamster Tracheal Organ Culture, Active/Total Cultures ([1]; Conc 10^-9 M)	Reversal of Keratinization in Hamster Tracheal Organ Culture, Active/Total Cultures (%) ([1]; Conc 10^-9 M)	Reversal of Keratinization in Hamster Tracheal Organ Culture, Active/Total Cultures ([1]; Conc 10^-10 M)	Reversal of Keratinization in Hamster Tracheal Organ Culture, Active/Total Cultures (%) ([1]; Conc 10^-10 M)	Reversal of Keratinization in Hamster Tracheal Organ Culture, Active/Total Cultures ([1]; Conc 10^-11 M)	Reversal of Keratinization in Hamster Tracheal Organ Culture, Active/Total Cultures (%) ([1]; Conc 10^-11 M)	Inhibition of Induction of Ornithine Decarboxylase by 12-O-Tetradecanoylphorbol-13-acetate in Mouse Skin, % Inhibition of Control (Ornithine Decarboxylase; Dose 1.7 nmol)	Inhibition of Induction of Ornithine Decarboxylase by 12-O-Tetradecanoylphorbol-13-acetate in Mouse Skin, % Inhibition of Control (Ornithine Decarboxylase; Dose 17 nmol)
CCOC(=O)c1ccc(/C=C(C)/C=C/C2=C(C)CCCC2(C)C)cn1 [Example, (E)-1-(2-Carbethoxy-5-pyridyl)-2-methyl-4-(2,6,6-trimethyl-1-cyclohexen-1-yl)-1,3-butadiene]	7/7	100%	8/14	57%	4/14	29%	1/7	14%	29%	68%
CC1=C(/C=C/C(C)=C/C=C/C(C)=C/C(=O)O)C(C)(C)CCC1 [Retinoic Acid]		100%		88%		52%				
